Data published in the NIST ThermoML archive (doi:10.1021/acs.jced.8b00854).
± gives the expanded uncertainty stated by the source.

Assays:
[1] = refractive index (Na D-line) (dimensionless); xn = mol fraction of the nth substance listed; conditions: 100 kPa, Liquid, Standard Abbe refractometry
[2] = xn = mol fraction of the nth substance listed; conditions: 100 kPa, Liquid, Vibrating tube method

CCn1cc[n+](C)c1.O=S(=O)([O-])C(F)(F)F [1-ethyl-3-methylimidazolium trifluoromethanesulfonate] + O
Conditions	mass density, [2] [kg/m3]	refractive index, [1]
293.15 K, x1 = 0.1001	1209.27 ± 2.1	1.3885 ± 0.0019
293.15 K, x1 = 0.2002	1281.52 ± 2	1.406 ± 0.0016
293.15 K, x1 = 0.3005	1315.51 ± 2	1.4155 ± 0.0016
293.15 K, x1 = 0.4002	1336.6 ± 2	1.421 ± 0.0017
293.15 K, x1 = 0.5003	1352.45 ± 2	1.425 ± 0.0016
293.15 K, x1 = 0.5997	1364.43 ± 2	1.4275 ± 0.0016
293.15 K, x1 = 0.6996	1372.69 ± 2	1.43 ± 0.0016
293.15 K, x1 = 0.8011	1379.1 ± 2	1.4315 ± 0.0016
293.15 K, x1 = 0.8992	1384.17 ± 2	1.4325 ± 0.0017
303.15 K, x1 = 0.1001	1201.8 ± 2.1	1.3865 ± 0.0016
303.15 K, x1 = 0.2002	1272.85 ± 2	1.4055 ± 0.0016
303.15 K, x1 = 0.3005	1307.15 ± 2	1.414 ± 0.0016
303.15 K, x1 = 0.4002	1328.01 ± 2	1.4175 ± 0.0017
303.15 K, x1 = 0.5003	1343.96 ± 2	1.423 ± 0.0016
303.15 K, x1 = 0.5997	1356.16 ± 2	1.4255 ± 0.0016
303.15 K, x1 = 0.6996	1364.59 ± 2	1.4275 ± 0.0016
303.15 K, x1 = 0.8011	1370.87 ± 2	1.4295 ± 0.0016
303.15 K, x1 = 0.8992	1375.74 ± 2	1.43 ± 0.0016
313.15 K, x1 = 0.1001	1193.23 ± 2.1	1.386 ± 0.0016
313.15 K, x1 = 0.2002	1263.86 ± 2	1.403 ± 0.0016
313.15 K, x1 = 0.3005	1298.67 ± 2	1.412 ± 0.0016
313.15 K, x1 = 0.4002	1319.89 ± 2	1.415 ± 0.0016
313.15 K, x1 = 0.5003	1335.41 ± 2	1.421 ± 0.0016
313.15 K, x1 = 0.5997	1347.44 ± 2	1.4235 ± 0.0016
313.15 K, x1 = 0.6996	1355.79 ± 2	1.4255 ± 0.0016
313.15 K, x1 = 0.8011	1362.45 ± 2	1.427 ± 0.0016
313.15 K, x1 = 0.8992	1367.34 ± 2	1.4285 ± 0.0016
323.15 K, x1 = 0.1001	1184.96 ± 2.1	1.3855 ± 0.0016
323.15 K, x1 = 0.2002	1254.13 ± 2	1.4025 ± 0.0016
323.15 K, x1 = 0.3005	1289.63 ± 2	1.411 ± 0.0016
323.15 K, x1 = 0.4002	1311.02 ± 2	1.414 ± 0.0016
323.15 K, x1 = 0.5003	1326.85 ± 2	1.42 ± 0.0016
323.15 K, x1 = 0.5997	1338.82 ± 2	1.422 ± 0.0017
323.15 K, x1 = 0.6996	1347.42 ± 2	1.4235 ± 0.0016
323.15 K, x1 = 0.8011	1353.98 ± 2	1.4255 ± 0.0016
323.15 K, x1 = 0.8992	1359.01 ± 2	1.426 ± 0.0017
333.15 K, x1 = 0.1001	1175.32 ± 2.1	1.385 ± 0.0016
333.15 K, x1 = 0.2002	1243.01 ± 2	1.4005 ± 0.0016
333.15 K, x1 = 0.3005	1279.6 ± 2	1.4095 ± 0.0016
333.15 K, x1 = 0.4002	1301.89 ± 2	1.413 ± 0.0016
333.15 K, x1 = 0.5003	1318.27 ± 2	1.418 ± 0.0016
333.15 K, x1 = 0.5997	1329.91 ± 2	1.418 ± 0.0016
333.15 K, x1 = 0.6996	1338.78 ± 2	1.421 ± 0.0016
333.15 K, x1 = 0.8011	1345.55 ± 2	1.423 ± 0.0016
333.15 K, x1 = 0.8992	1350.72 ± 2	1.4237 ± 0.0017
343.15 K, x1 = 0.1001	1162.52 ± 2.1	1.385 ± 0.0022
343.15 K, x1 = 0.2002	1232.07 ± 2	1.3995 ± 0.0016
343.15 K, x1 = 0.3005	1269.41 ± 2	1.409 ± 0.0016
343.15 K, x1 = 0.4002	1292.35 ± 2	1.413 ± 0.0016
343.15 K, x1 = 0.5003	1309.53 ± 2	1.417 ± 0.0016
343.15 K, x1 = 0.5997	1321.23 ± 2	1.4175 ± 0.0016
343.15 K, x1 = 0.6996	1330.17 ± 2	1.419 ± 0.0016
343.15 K, x1 = 0.8011	1336.93 ± 2	1.421 ± 0.0017
343.15 K, x1 = 0.8992	1342.48 ± 2	1.4215 ± 0.0017
